Laboratory results as given in ChEMBL document CHEMBL1121773, “Interaction of aromatic dyes with the coenzyme A binding site of choline acetyltransferase” (J Med Chem, 1981).

Test system: Choline O-acetyltransferase (squid)
Assay: Compound was tested for inhibition of choline acetyltransferase isolated from squid head ganglia; No inhibition at limit of solubility (4.4*10e-3 M)

Ki: No inhibition at limit of solubility
Compound: O=S(=O)(O)c1ccc2ccccc2c1Nc1ccccc1
